Source: US8192962B2, “Processes for detecting toxic substances” (Daikin Industries, Ltd., priority 2001, dated 2012)

Tested on: Energy system protein genes
Assay: DNA chip mRNA expression in yeast, energy system protein genes (Table 4)
Type: cell-based, Saccharomyces cerevisiae S288C
Outline: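 Value is the scanned fluorescence intensity ratio of exposed versus chemical-free cells. Log-phase S288C yeast in YPD at 25° C. received one toxic substance for two hours, dosed to slow growth without killing; Cy3/Cy5-labeled cDNA from oligo-dT-purified mRNA was hybridized to a whole-genome chip at 65° C.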

## CN(C)C(=S)SSC(=S)N(C)C [(10), Tetramethylthiuram disulfide]
Yeast gene YJL216C, cells incubated two hours with the chemical substance
  The level of expressed mRNA in the presence of chemical substance/The level of expressed mRNA in the absence of chemical substance: 1.3
Yeast gene YJR009C
  The level of expressed mRNA in the presence of chemical substance/The level of expressed mRNA in the absence of chemical substance: 1.3
Yeast gene YJR048W
  The level of expressed mRNA in the presence of chemical substance/The level of expressed mRNA in the absence of chemical substance: 1.5
Yeast gene YJR121W, cells incubated two hours with the chemical substance
  The level of expressed mRNA in the presence of chemical substance/The level of expressed mRNA in the absence of chemical substance: 1.3
Yeast gene YJR155W
  The level of expressed mRNA in the presence of chemical substance/The level of expressed mRNA in the absence of chemical substance: 18.8
Yeast gene YKL016C, cells incubated two hours with the chemical substance
  The level of expressed mRNA in the presence of chemical substance/The level of expressed mRNA in the absence of chemical substance: 1.8
Yeast gene YKL060C, cells incubated two hours with the chemical substance
  The level of expressed mRNA in the presence of chemical substance/The level of expressed mRNA in the absence of chemical substance: 0.8
Yeast gene YKL141W, cells incubated two hours with the chemical substance
  The level of expressed mRNA in the presence of chemical substance/The level of expressed mRNA in the absence of chemical substance: 0.5
Yeast gene YKL148C, cells incubated two hours with the chemical substance
  The level of expressed mRNA in the presence of chemical substance/The level of expressed mRNA in the absence of chemical substance: 1.7
Yeast gene YKR009C, cells incubated two hours with the chemical substance
  The level of expressed mRNA in the presence of chemical substance/The level of expressed mRNA in the absence of chemical substance: 2.1
Yeast gene YKR058W, cells incubated two hours with the chemical substance, 25° C., YPD medium
  The level of expressed mRNA in the presence of chemical substance/The level of expressed mRNA in the absence of chemical substance: 1.2
Yeast gene YKR097W
  The level of expressed mRNA in the presence of chemical substance/The level of expressed mRNA in the absence of chemical substance: 3.3
Yeast gene YLL041C, cells incubated two hours with the chemical substance
  The level of expressed mRNA in the presence of chemical substance/The level of expressed mRNA in the absence of chemical substance: 0.8
Yeast gene YLR038C, cells incubated two hours with the chemical substance
  The level of expressed mRNA in the presence of chemical substance/The level of expressed mRNA in the absence of chemical substance: 0.9
Yeast gene YLR044C, cells incubated two hours with the chemical substance
  The level of expressed mRNA in the presence of chemical substance/The level of expressed mRNA in the absence of chemical substance: 1.2
Yeast gene YLR134W, cells incubated two hours with the chemical substance
  The level of expressed mRNA in the presence of chemical substance/The level of expressed mRNA in the absence of chemical substance: 0.7
Yeast gene YLR258W, cells incubated two hours with the chemical substance
  The level of expressed mRNA in the presence of chemical substance/The level of expressed mRNA in the absence of chemical substance: 1.3
Yeast gene YLR284C, cells incubated two hours with the chemical substance
  The level of expressed mRNA in the presence of chemical substance/The level of expressed mRNA in the absence of chemical substance: 0.9
Yeast gene YLR295C, cells incubated two hours with the chemical substance, 25° C., YPD medium
  The level of expressed mRNA in the presence of chemical substance/The level of expressed mRNA in the absence of chemical substance: 1.2
Yeast gene YLR304C, cells incubated two hours with the chemical substance
  The level of expressed mRNA in the presence of chemical substance/The level of expressed mRNA in the absence of chemical substance: 2.2
Yeast gene YLR345W
  The level of expressed mRNA in the presence of chemical substance/The level of expressed mRNA in the absence of chemical substance: 4.0
Yeast gene YLR354C, cells incubated two hours with the chemical substance
  The level of expressed mRNA in the presence of chemical substance/The level of expressed mRNA in the absence of chemical substance: 0.9
Yeast gene YLR377C, cells incubated two hours with the chemical substance
  The level of expressed mRNA in the presence of chemical substance/The level of expressed mRNA in the absence of chemical substance: 1.6
Yeast gene YLR395C, cells incubated two hours with the chemical substance
  The level of expressed mRNA in the presence of chemical substance/The level of expressed mRNA in the absence of chemical substance: 0.9
Yeast gene YML087C
  The level of expressed mRNA in the presence of chemical substance/The level of expressed mRNA in the absence of chemical substance: 4.9
Yeast gene YML120C, cells incubated two hours with the chemical substance
  The level of expressed mRNA in the presence of chemical substance/The level of expressed mRNA in the absence of chemical substance: 1.5
Yeast gene YML129C, cells incubated two hours with the chemical substance
  The level of expressed mRNA in the presence of chemical substance/The level of expressed mRNA in the absence of chemical substance: 2.2
Yeast gene YMR073C, cells incubated two hours with the chemical substance
  The level of expressed mRNA in the presence of chemical substance/The level of expressed mRNA in the absence of chemical substance: 1.2
Yeast gene YMR118C
  The level of expressed mRNA in the presence of chemical substance/The level of expressed mRNA in the absence of chemical substance: 1.4
Yeast gene YMR205C, cells incubated two hours with the chemical substance
  The level of expressed mRNA in the presence of chemical substance/The level of expressed mRNA in the absence of chemical substance: 0.8
Yeast gene YMR261C, cells incubated two hours with the chemical substance
  The level of expressed mRNA in the presence of chemical substance/The level of expressed mRNA in the absence of chemical substance: 1.3
Yeast gene YMR267W, cells incubated two hours with the chemical substance, 25° C., YPD medium
  The level of expressed mRNA in the presence of chemical substance/The level of expressed mRNA in the absence of chemical substance: 0.8
Yeast gene YMR323W, cells incubated two hours with the chemical substance
  The level of expressed mRNA in the presence of chemical substance/The level of expressed mRNA in the absence of chemical substance: 1.3
Yeast gene YNL071W
  The level of expressed mRNA in the presence of chemical substance/The level of expressed mRNA in the absence of chemical substance: 1.2
Yeast gene YNL202W, cells incubated two hours with the chemical substance
  The level of expressed mRNA in the presence of chemical substance/The level of expressed mRNA in the absence of chemical substance: 1.1
Yeast gene YNL241C
  The level of expressed mRNA in the presence of chemical substance/The level of expressed mRNA in the absence of chemical substance: 7.4
Yeast gene YNL331C
  The level of expressed mRNA in the presence of chemical substance/The level of expressed mRNA in the absence of chemical substance: 36.3
Yeast gene YOL086C, cells incubated two hours with the chemical substance
  The level of expressed mRNA in the presence of chemical substance/The level of expressed mRNA in the absence of chemical substance: 1.2
Yeast gene YOL157C
  The level of expressed mRNA in the presence of chemical substance/The level of expressed mRNA in the absence of chemical substance: 4.8
Yeast gene YOL165C
  The level of expressed mRNA in the presence of chemical substance/The level of expressed mRNA in the absence of chemical substance: 23.3
Yeast gene YOR136W
  The level of expressed mRNA in the presence of chemical substance/The level of expressed mRNA in the absence of chemical substance: 3.4
Yeast gene YOR142W, cells incubated two hours with the chemical substance
  The level of expressed mRNA in the presence of chemical substance/The level of expressed mRNA in the absence of chemical substance: 1.5
Yeast gene YOR178C, cells incubated two hours with the chemical substance
  The level of expressed mRNA in the presence of chemical substance/The level of expressed mRNA in the absence of chemical substance: 1.7
Yeast gene YOR388C, cells incubated two hours with the chemical substance
  The level of expressed mRNA in the presence of chemical substance/The level of expressed mRNA in the absence of chemical substance: 1.4
Yeast gene YPL031C, cells incubated two hours with the chemical substance
  The level of expressed mRNA in the presence of chemical substance/The level of expressed mRNA in the absence of chemical substance: 1.4
Yeast gene YPL061W, cells incubated two hours with the chemical substance
  The level of expressed mRNA in the presence of chemical substance/The level of expressed mRNA in the absence of chemical substance: 0.7
Yeast gene YPL088W
  The level of expressed mRNA in the presence of chemical substance/The level of expressed mRNA in the absence of chemical substance: 2.8
Yeast gene YPL171C
  The level of expressed mRNA in the presence of chemical substance/The level of expressed mRNA in the absence of chemical substance: 50.6
Yeast gene YPL240C
  The level of expressed mRNA in the presence of chemical substance/The level of expressed mRNA in the absence of chemical substance: 2.6
Yeast gene YPL262W, cells incubated two hours with the chemical substance
  The level of expressed mRNA in the presence of chemical substance/The level of expressed mRNA in the absence of chemical substance: 5.8
Yeast gene YPL275W, cells incubated two hours with the chemical substance
  The level of expressed mRNA in the presence of chemical substance/The level of expressed mRNA in the absence of chemical substance: 1.2
Yeast gene YPL276W, cells incubated two hours with the chemical substance
  The level of expressed mRNA in the presence of chemical substance/The level of expressed mRNA in the absence of chemical substance: 1.8
Yeast gene YPR048W, cells incubated two hours with the chemical substance
  The level of expressed mRNA in the presence of chemical substance/The level of expressed mRNA in the absence of chemical substance: 2.1
Yeast gene YPR184W, cells incubated two hours with the chemical substance
  The level of expressed mRNA in the presence of chemical substance/The level of expressed mRNA in the absence of chemical substance: 3.2
